Assay results reported in patent EP4722203A1, “3,4-DIHYDROPHTHALAZIN-1(2H)-ONE DERIVATIVE, AND PREPARATION METHOD THEREFOR AND USE THEREOF” (Academy of Military Medical Sciences, priority 2023, dated 2024).

Assays:
[1] = test system: human multiple myeloma NCI-H929 xenograft tumors; test: In vivo activity of combination therapy with bortezomib or tazemetostat against NCI-H929 transplanted tumor; parameters: species or system NOD/SCID mice; conditions: I-8 3 mg/kg QD
Description: In this example, the human multiple myeloma NCI-H929 cell line was selected as the cell model to determine the inhibitory effects of compounds, bortezomib (Bort), and tazemetostat (Taze), as single drugs and in combination, on the growth of NOD/SCID mouse transplanted tumors of NCI-H929 tumor cells. The evaluation methods and results are described below.
(§1) Human multiple myeloma NCI-H929 cells were routinely cultured in RPMI1640 containing 10% fetal bovine serum at 37°C in a 5% CO2 incubator. After three passages in vitro, when the cells reached over 80% confluence and the required confluence rate, the cells were digested and harvested. After washing with PBS, the cells were counted and the cell concentration was adjusted to approximately 5 × 10^7 cells/mL. The cells were then placed in 4 mL centrifuge tubes on ice for later use.
(§2) Female NOD/SCID mice aged 4-5 weeks were selected and subcutaneously inoculated with NCI-H929 cells ectopically. The mice were held in a lateral position, the forelimb axilla was disinfected with 75% alcohol, and 100 µL of the cell suspension was injected subcutaneously into the axilla using a 1 mL syringe ([…]/100 µL).
After the tumors grew to 90-150 mm^3, the animals were randomly divided into groups, 8 mice in each group, and administered according to different administration methods as follows: • Model control group: Administered with the same volume of Vehicle (DMSO: 0.5% sodium carboxymethyl cellulose: distilled water = 1:1:8) daily by gavage; • Test group 1: administered with I-8 solution at 3 mg/kg (mouse body weight) daily by gavage; • Test group 2: administered with bortezomib (Bort) solution at 1 mg/kg (mouse body weight) twice weekly by gavage; • Test group 3: administered with tazemetostat solution at 100 mg/kg (mouse body weight) daily by gavage; • Test group 4: administered with I-8 at 3 mg/kg (mouse body weight) daily by gavage and bortezomib (Bort) solution at 1 mg/kg (mouse body weight) twice weekly by gavage; • Test group 5: administered with I-8 at 3 mg/kg (mouse body weight) daily by gavage and tazemetostat (Taze) solution at 100 mg/kg (mouse body weight) daily by gavage;
(§3) The route of administration was oral gavage, and the administration frequency was once daily, for 10 consecutive days. The first day of administration was defined as Day 1 of the experiment. Tumor volume changes in mice were measured and recorded every two days. Tumor volume was measured using a vernier caliper, in which the major axis (a) and minor axis (b) of the tumor were measured, and the tumor volume was calculated as tumor volume V (mm^3) = a x b^2/2. After the experiment, the mice were dissected and the tumor weight was measured. The data were entered and statistically analyzed using GraphPad Prism 6 software. The data are expressed as mean ± SEM (Standard Error of Mean), and one-way ANOVA was used. P ≤ 0.05 was considered statistically significant.

RPMI-8226 cells = test: Antiproliferative activity, CCK-8 assay; assay type: cell-based; conditions: Homo sapiens, 144 hours incubation, CCK-8, absorbance at 450 nm
[2] = test system: human multiple myeloma NCI-H929 xenograft tumors; test: In vivo activity in combination with dexamethasone against NCI-H929 transplanted tumor; parameters: species or system NOD/SCID mice; conditions: each drug 3 mg/kg, QD; for Tumor inhibition rate TGI (%) / Average volume (mm^3) (Day 10) / Initial volume (mm^3): oral gavage, alone or combined; for Tumor inhibition rate TGI (%): 10 consecutive days; for Initial volume (mm^3): baseline
Description: In this example, human multiple myeloma NCI-H929 cell line was selected as the cell model to determine the inhibitory effects of compound and dexamethasone alone, as well as combination thereof on the growth of NOD/SCID mouse transplanted tumors of NCI-H929 tumor cells. The evaluation methods and results are described below.
as §1, §2
After the tumors grew to 90-150 mm^3, the animals were randomly divided into groups, 8 mice in each group, and administered according to different administration methods as follows: • Model control group: Administered with the same volume of Vehicle (DMSO: 0.5% sodium carboxymethyl cellulose: distilled water = 1:1:8) daily by gavage; • Test group 1: administered with dexamethasone (Dex) solution at 3 mg/kg (mouse body weight) daily by gavage; • Test group 2: administered with I-4 solution at 3 mg/kg (mouse body weight) daily by gavage; • Test group 3: administered with I-8 solution at 3 mg/kg (mouse body weight) daily by gavage; • Test group 4: administered with dexamethasone at 3 mg/kg (mouse body weight) and 1-4 solution at 3 mg/kg (mouse body weight) daily by gavage; • Test group 5: administered with dexamethasone at 3 mg/kg (mouse body weight) and I-8 solution at 3 mg/kg (mouse body weight) daily by gavage;
as §3

Row | Structure (SMILES) | Average volume (mm^3) (Day 10) ([1]; Day 10, Bort 1 mg/kg BIW, Taze 100 mg/kg QD, combinations given as + Bort 3 mg/kg BIW / + Taze 3 mg/kg QD) | Tumor inhibition rate TGI (%) ([1]; Bort 1 mg/kg BIW, Taze 100 mg/kg QD, combinations given as + Bort 3 mg/kg BIW / + Taze 3 mg/kg QD) | growth of NCI-H929 transplanted tumors (in words) ([1]; bortezomib 1 mg/kg BIW, tazemetostat 100 mg/kg QD, alone or combined) | Initial volume (mm^3) ([1]; baseline, Bort 1 mg/kg BIW, Taze 100 mg/kg QD, combinations given as + Bort 3 mg/kg BIW / + Taze 3 mg/kg QD) | IC50 (RPMI-8226 cells) | growth of NCI-H929 transplanted tumors (in words) [2] | Tumor inhibition rate TGI (%) [2] | Average volume (mm^3) (Day 10) [2] | Initial volume (mm^3) [2]
1 | CN1Cc2c(NCc3ccc(CN4CCN(c5ccc(C#N)c(F)c5)CC4)cc3)cccc2C(=O)N1C1CCC(=O)NC1=O (centres unmarked) [I-8] | 498.6 mm^3 | 77.24% | effectively inhibits the growth | 120.7 mm^3 | 0.308 µM | effectively inhibit the growth | 82.64% | 458.1 mm^3 | 183.3 mm^3
2 | CN1Cc2c(N)cccc2C(=O)N1C1CCC(=O)NC1=O (centres unmarked) [I-4, 3-(5-amino-3-methyl-1-oxo-3,4-dihydrophthalazin-2(1H)-yl)piperidin-2,6-dione] |  |  |  |  |  | effectively inhibit the growth | 68.03% | 689.9 mm^3 | 183.9 mm^3
3 | Nc1cccc2c1C(=O)N(C1CCC(=O)NC1=O)C2=O (centres unmarked) [Pomalidomide, reference compound] |  |  |  |  | 0.729 µM |  |  |  | 
